These results are taken from EP4678638A1, “NEW E3 UBIQUITIN LIGASE LIGAND, PROTEIN DEGRADATION AGENT AND USE THEREOF” (priority 2023, dated 2024).

The subject of assay [1] is H2228. Put plainly: CCK-8 proliferation, NCI-H2228 (H2228). The class given is cell-based. The conditions noted are these: Homo sapiens, NCI-H2228; Table B6, compounds designed based on the ALK inhibitors; H2228 cells; read-out: Inhibitory activity (IC50, nM) on tumor cell proliferation, H2228. Summed up: (§1)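 Cells seeded, then after 24 h treated with 10 concentrations (top 10 µM, 5-fold serial dilution) for a line-specific time at 37°C, 5% CO2. Viability read by CCK-8; IC50 fitted from growth-inhibition curves.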

For assay [2], the system named is MCF7. Put plainly: CCK-8 proliferation, MCF7 (MCF-7). The class given is cell-based. Conditions: Homo sapiens, MCF7; Table B6, compounds designed based on the ALK inhibitors; MCF-7 cells; read-out: Inhibitory activity (IC50, nM) on tumor cell proliferation, MCF-7. Summed up:
as §1

Assay [3] addresses T1, ALK (Homo sapiens, UniProt Q96SW2+Q9HC35+Q9UM73).
T1 construct: evaluate the effects of the compounds of the present disclosure on the expression of target proteins in cells; endogenous in cells; host or cells: H2228
Put plainly: Western blot degradation of ALK (H2228 Cell). The class given is cell-based. The conditions noted are these: Table D5. How it is done:
Conventional Western blot assay was performed to evaluate the effects of the compounds of the present disclosure on the expression of target proteins in cells.
(1) Cell Seeding and Protein Harvesting: The selected cells were processed according to the cell seeding procedure and protein harvesting procedure in Table III-2. Table III-2 Cell Seeding and Protein Harvesting Procedures
(2) To the collected supernatant, 5X SDS sample loading buffer was added, followed by denaturation at 95°C for 5 minutes. The denatured samples were then separated by SDS-PAGE electrophoresis on a polyacrylamide gel. Proteins were transferred to a nitrocellulose membrane (0.45 µm NC membrane), blocked with blocking buffer at room temperature for 1 hour, and subjected to antibody incubation and development procedures according to the antibody manufacturer's instructions (Cell Signaling Technology).
Half-Maximal Degradation Concentration value (the drug concentration required for degrading proteins by 50%, abbreviated as DC50) reads method: comparing the grayscale values of Western blot bands from drug-treated samples with those from blank DMSO-treated controls, and identifying the drug concentration range at which the grayscale value is half that of the DMSO-treated control bands.
DC50 values can be calculated using ImageJ software to measure grayscale values of Western blot bands from drug-treated samples. The concentration-response curve is fitted to estimate the drug concentration corresponding to half the grayscale value.
Target protein remaining (%) refers to the percentage of target protein remaining in hPBMC cells after treatment with protein degrader compounds.
Calculation method for target protein remaining (%): Use ImageJ software to measure grayscale values of Western blot bands from drug (protein degrader)-treated samples. The grayscale value of drug-treated bands is divided by that of internal control protein bands, and the resulting quotient is normalized to obtain the relative percentage of remaining target protein after protein degrader treatment.
Target protein degradation rate (%) = 100% - target protein remaining (%).

The test system of assay [4] is SR. Put plainly: CCK-8 proliferation, SR. The class given is cell-based, Human. Conditions: Homo sapiens; Table B6, compounds designed based on the ALK inhibitors; SR cells; read-out: Inhibitory activity (IC50, nM) on tumor cell proliferation, SR. The gist of the method:
as §1

Assay [5] has as its system H1975. Put plainly: CCK-8 proliferation, NCI-H1975 (H1975). Conditions: Homo sapiens, NCI-H1975; Table B6, compounds designed based on the ALK inhibitors; H1975 cells; read-out: Inhibitory activity (IC50, nM) on tumor cell proliferation, H1975. The class given is cell-based, Human. The gist of the method:
as §1

T1 sequence (Q9HC35+Q9UM73 fused): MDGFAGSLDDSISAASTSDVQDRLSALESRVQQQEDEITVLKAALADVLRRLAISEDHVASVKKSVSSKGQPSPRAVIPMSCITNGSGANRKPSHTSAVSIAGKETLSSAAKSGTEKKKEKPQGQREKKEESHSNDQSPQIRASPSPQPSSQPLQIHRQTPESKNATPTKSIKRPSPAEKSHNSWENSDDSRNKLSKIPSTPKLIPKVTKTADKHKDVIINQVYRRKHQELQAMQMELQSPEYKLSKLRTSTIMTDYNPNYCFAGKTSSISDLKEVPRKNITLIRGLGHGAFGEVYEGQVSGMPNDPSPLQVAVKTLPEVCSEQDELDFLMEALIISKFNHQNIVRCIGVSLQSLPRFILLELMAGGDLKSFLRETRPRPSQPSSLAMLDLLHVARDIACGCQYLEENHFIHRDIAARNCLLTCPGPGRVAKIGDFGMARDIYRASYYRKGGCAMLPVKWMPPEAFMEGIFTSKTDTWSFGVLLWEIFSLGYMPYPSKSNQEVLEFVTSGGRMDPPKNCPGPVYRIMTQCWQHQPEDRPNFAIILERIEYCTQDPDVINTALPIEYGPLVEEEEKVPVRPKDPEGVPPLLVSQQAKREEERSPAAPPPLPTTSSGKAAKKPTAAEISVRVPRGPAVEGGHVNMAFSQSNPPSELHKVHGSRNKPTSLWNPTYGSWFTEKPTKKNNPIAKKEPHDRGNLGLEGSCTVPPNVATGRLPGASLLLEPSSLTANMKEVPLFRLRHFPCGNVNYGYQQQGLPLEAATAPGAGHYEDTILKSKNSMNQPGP
T1 sequence (Q96SW2 whole entry): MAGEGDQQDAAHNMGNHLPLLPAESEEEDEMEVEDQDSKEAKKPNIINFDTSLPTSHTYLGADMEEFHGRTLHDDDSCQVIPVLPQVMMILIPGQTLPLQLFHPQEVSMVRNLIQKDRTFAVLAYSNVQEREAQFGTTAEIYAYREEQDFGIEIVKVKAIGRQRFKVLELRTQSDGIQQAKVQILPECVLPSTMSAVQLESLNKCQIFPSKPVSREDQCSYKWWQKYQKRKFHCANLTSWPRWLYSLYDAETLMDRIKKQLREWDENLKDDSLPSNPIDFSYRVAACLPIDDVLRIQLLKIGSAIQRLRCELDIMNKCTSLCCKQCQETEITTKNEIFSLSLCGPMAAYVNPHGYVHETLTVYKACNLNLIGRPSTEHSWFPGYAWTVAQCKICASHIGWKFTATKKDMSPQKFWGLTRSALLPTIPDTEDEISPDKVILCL
T1 sequence (Q16531 whole entry partner): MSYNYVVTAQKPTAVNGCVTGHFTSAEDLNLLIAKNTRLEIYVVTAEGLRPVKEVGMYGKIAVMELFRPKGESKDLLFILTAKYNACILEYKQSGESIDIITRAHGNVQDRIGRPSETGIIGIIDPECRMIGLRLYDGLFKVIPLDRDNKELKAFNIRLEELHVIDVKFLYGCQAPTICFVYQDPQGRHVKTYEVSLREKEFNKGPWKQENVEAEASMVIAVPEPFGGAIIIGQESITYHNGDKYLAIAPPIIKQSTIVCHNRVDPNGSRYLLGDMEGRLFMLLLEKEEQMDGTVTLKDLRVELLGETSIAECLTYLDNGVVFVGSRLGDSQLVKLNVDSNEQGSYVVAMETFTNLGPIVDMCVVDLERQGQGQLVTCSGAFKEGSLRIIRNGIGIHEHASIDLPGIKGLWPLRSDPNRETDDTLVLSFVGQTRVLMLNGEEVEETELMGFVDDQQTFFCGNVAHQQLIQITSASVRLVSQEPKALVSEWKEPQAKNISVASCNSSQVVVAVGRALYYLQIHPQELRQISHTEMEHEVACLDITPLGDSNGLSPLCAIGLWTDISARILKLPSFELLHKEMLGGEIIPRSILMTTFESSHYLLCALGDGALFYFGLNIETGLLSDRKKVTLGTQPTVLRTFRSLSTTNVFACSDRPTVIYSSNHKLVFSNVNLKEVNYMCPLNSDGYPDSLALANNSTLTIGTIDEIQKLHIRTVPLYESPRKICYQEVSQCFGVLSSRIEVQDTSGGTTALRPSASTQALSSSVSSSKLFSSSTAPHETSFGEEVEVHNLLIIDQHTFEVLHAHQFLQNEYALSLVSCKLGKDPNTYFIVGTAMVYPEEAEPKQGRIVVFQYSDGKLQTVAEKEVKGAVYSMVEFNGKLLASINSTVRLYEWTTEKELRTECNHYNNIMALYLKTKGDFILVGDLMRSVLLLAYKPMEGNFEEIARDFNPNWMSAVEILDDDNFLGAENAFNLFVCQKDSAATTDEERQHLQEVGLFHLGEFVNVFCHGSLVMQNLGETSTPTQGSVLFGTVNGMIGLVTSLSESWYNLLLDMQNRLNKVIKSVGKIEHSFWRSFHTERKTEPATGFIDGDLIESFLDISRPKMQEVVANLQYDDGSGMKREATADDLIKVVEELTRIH

In the case of `CCc1cc2c(cc1N1CCC(N3CCN(Cc4ccc(N5CCC(=O)NC5=O)nc4)CC3)CC1)C(C)(C)c1[nH]c3cc(C#N)ccc3c1C2=O` [GT-07312, 8-(4-(4-((6-(2,4-dioxotetrahydropyrimidin-1(2H)-yl)pyridin-3-yl)methyl)piperazin-1-yl)piperidin-1-yl)-9-ethyl-6,6-dimethyl-11-oxo-6,11-dihydro-5H-benzo[b]carbazole-3-carbonitrile], the IC50 fell in the range of 50 to 100 nM in assay [1], 500 to 1000 nM in assay [2] and 1 to 10 nM in assay [4]. In addition, the “Degradation of substrate protein ALK (substrate protein remaining %)” value (shortened to “Degradation … (substrate protein remaining %)”) in assay [3] was “A (A is defined as 0% ≤ substrate protein remaining % ≤ 80%)”.

With `CCc1cc2c(cc1N1CCN(Cc3ccc(N4CCC(=O)NC4=O)cc3)CC1)C(C)(C)c1[nH]c3cc(C#N)ccc3c1C2=O` [GT-07324, 8-(4-(4-(2,4-dioxotetrahydropyrimidin-1(2H)-yl)benzyl)piperazin-1-yl)-9-ethyl-6,6-dimethyl-11-oxo-6,11-dihydro-5H-benzo[b]carbazole-3-carbonitrile], the IC50 in assay [1] was in the range of 100 to 500 nM; in assay [2] it was 500 to 1000 nM; in assay [4], 10 to 50 nM. Besides, in assay [3], the “Degradation … (substrate protein remaining %)” value is reported as “A (A is defined as 0% ≤ substrate protein remaining % ≤ 80%)”.

For `CCc1cc2c(cc1N1CCN(Cc3ccc(N4CCC(=O)NC4=O)nc3)CC1)C(C)(C)c1[nH]c3cc(C#N)ccc3c1C2=O` [GT-07327, 8-(4-((6-(2,4-dioxotetrahydropyrimidin-1(2H)-yl)pyridin-3-yl)methyl)piperazin-1-yl)-9-ethyl-6,6-dimethyl-11-oxo-6,11-dihydro-5H-benzo[b]carbazole-3-carbonitrile], the values for the IC50 in assay [1], in assay [2] and in assay [4] were 100 to 500 nM, 500 to 1000 nM and 1 to 10 nM, respectively. For the same molecule, in assay [3], the “Degradation … (substrate protein remaining %)” value is on record as “A (A is defined as 0% ≤ substrate protein remaining % ≤ 80%)”.

On to `COc1cc(N2CCN(Cc3ccc(N4CCC(=O)NC4=O)cc3)CC2)ccc1Nc1ncc(Cl)c(Nc2ccccc2P(C)(C)=O)n1` [GT-07345, 1-(4-((4-(4-((5-chloro-4-((2-(dimethylphosphoryl)phenyl)amino)pyrimidin-2-yl)amino)-3-methoxyphenyl)piperazin-1-yl)methyl)phenyl)dihydropyr imidine-2,4(1H,3H)-dione], for which the IC50 in assay [1] was 100 to 500 nM; in assay [2], 500 to 1000 nM; in assay [5], 500 to 1000 nM; in assay [4], 10 to 50 nM. Moreover, the “Degradation … (substrate protein remaining %)” value in assay [3] is recorded as “A (A is defined as 0% ≤ substrate protein remaining % ≤ 80%)”.

`COc1cc(N2CCN(Cc3ccc(N4CCC(=O)NC4=O)c(F)c3)CC2)ccc1Nc1ncc(Cl)c(Nc2ccccc2P(C)(C)=O)n1` [GT-07346, 1-(4-((4-(4-((5-chloro-4-((2-(dimethylphosphoryl)phenyl)amino)pyrimidin-2-yl)amino)-3-methoxyphenyl)piperazin-1-yl)methyl)-2-fluorophenyl)dihydropyrimidine-2,4(1H,3H)-dione]: the IC50 in assay [1] is 100 to 500 nM; in assay [2] it was 500 to 1000 nM; in assay [5], 100 to 500 nM; in assay [4], 10 to 50 nM. For the same molecule, the “Degradation … (substrate protein remaining %)” value in assay [3] is “A (A is defined as 0% ≤ substrate protein remaining % ≤ 80%)”.

As to `COc1cc(N2CCN(Cc3cccc(N4CCC(=O)NC4=O)c3)CC2)ccc1Nc1ncc(Cl)c(Nc2ccccc2P(C)(C)=O)n1` [GT-07348, 1-(3-((4-(4-((5-chloro-4-((2-(dimethylphosphoryl)phenyl)amino)pyrimidin-2-yl)amino)-3-methoxyphenyl)piperazin-1-yl)methyl)phenyl)dihydropyr imidine-2,4(1H,3H)-dione], the IC50 in assay [1] lay in the range of 100 to 500 nM; in assay [5], 500 to 1000 nM; in assay [4], 10 to 50 nM. For the same molecule, in assay [3], the “Degradation … (substrate protein remaining %)” value is reported as “A (A is defined as 0% ≤ substrate protein remaining % ≤ 80%)”.

Regarding `COc1cc(N2CCN(Cc3ccc(N4CCC(=O)NC4=O)cn3)CC2)ccc1Nc1ncc(Cl)c(Nc2ccccc2P(C)(C)=O)n1` [GT-07349, 1-(6-((4-(4-((5-chloro-4-((2-(dimethylphosphoryl)phenyl)amino)pyrimidin-2-yl)amino)-3-methoxyphenyl)piperazin-1-yl)methyl)pyridin-3-yl)dihydropyrimidine-2,4(1H,3H)-dione], the IC50 in assay [1] lay within 500 to 1000 nM; in assay [5], 500 to 1000 nM; in assay [4], 50 to 100 nM. Moreover, the “Degradation … (substrate protein remaining %)” value in assay [3] is “A (A is defined as 0% ≤ substrate protein remaining % ≤ 80%)”.

`COc1cc(N2CCN(Cc3cccc(NC4CCC(=O)NC4=O)c3)CC2)ccc1Nc1ncc(Cl)c(Nc2ccccc2P(C)(C)=O)n1` (stereo not drawn) [GT-07351, 3-((3-((4-(4-((5-chloro-4-((2-(dimethylphosphoryl)phenyl)amino)pyrimidin-2-yl)amino)-3-methoxyphenyl)piperazin-1-yl)methyl)phenyl)amino)pip eridine-2,6-dione]: the IC50 in assay [1] was in the range of 100 to 500 nM; in assay [2] it was 500 to 1000 nM; in assay [5], 500 to 1000 nM; in assay [4] it was 10 to 50 nM. Moreover, the “Degradation … (substrate protein remaining %)” value in assay [3] is reported as “A (A is defined as 0% ≤ substrate protein remaining % ≤ 80%)”.

As to `Cc1cc(Nc2ncc(Cl)c(Nc3ccccc3S(=O)(=O)C(C)C)n2)c(OC(C)C)cc1C1CCN(Cc2ccc(N3CCC(=O)NC3=O)cc2)CC1` [GT-07592, 1-(4-((4-(4-((5-chloro-4-((2-(isopropylsulfonyl)phenyl)amino)pyrimidin-2-yl)amino)-5-isopropoxy-2-methylphenyl)piperidin-1-yl)methyl)phenyl)dihydropyr imidine-2,4(1H,3H)-dione], the IC50 lay within 100 to 500 nM in assay [1], 500 to 1000 nM in assay [2] and 10 to 50 nM in assay [4]. Further, the “Degradation … (substrate protein remaining %)” value in assay [3] is listed as “A (A is defined as 0% ≤ substrate protein remaining % ≤ 80%)”.

For `Cc1cc(Nc2ncc(Cl)c(Nc3ccccc3S(=O)(=O)C(C)C)n2)c(OC(C)C)cc1C1CCN(Cc2ccnc(N3CCC(=O)NC3=O)c2)CC1` [GT-07596, 1-(4-((4-(4-((5-chloro-4-((2-(isopropylsulfonyl)phenyl)amino)pyrimidin-2-yl)amino)-5-isopropoxy-2-methylphenyl)piperidin-1-yl)methyl)pyridin-2-yl)dihydropyrimidine-2,4(1H,3H)-dione], the figures for the IC50 in assay [1], in assay [2] and in assay [4] were 100 to 500 nM, 100 to 500 nM and 10 to 50 nM, respectively. For the same molecule, in assay [3], the “Degradation … (substrate protein remaining %)” value is reported as “A (A is defined as 0% ≤ substrate protein remaining % ≤ 80%)”.

With `COc1cc(N2CCC(N3CCN(Cc4cc(C5CCC(=O)NC5=O)cnc4F)CC3)CC2)ccc1Nc1ncc(Cl)c(Nc2ccccc2P(C)(C)=O)n1` (stereo not drawn) [GT-07611, 3-(5-((4-(1-(4-((5-chloro-4-((2-(dimethylphosphoryl)phenyl)amino)pyrimidin-2-yl)amino)-3-methoxyphenyl)piperidin-4-yl)piperazin-1-yl)methyl)-6-fluoropyridin-3-yl)piperidine-2,6-dione], the IC50 in assay [1] was 10 to 50 nM; in assay [5] it was 500 to 1000 nM; in assay [4], 1 to 10 nM. Further, the “Degradation … (substrate protein remaining %)” value in assay [3] is reported as “A (A is defined as 0% ≤ substrate protein remaining % ≤ 80%)”.

For `COc1cc(N2CCC(N(C)Cc3ccnc(C4CCC(=O)NC4=O)c3)CC2)ccc1Nc1ncc(Cl)c(Nc2ccccc2P(C)(C)=O)n1` (stereo not drawn) [GT-07697, 3-(4-(((1-(4-((5-chloro-4-((2-(dimethylphosphoryl)phenyl)amino)pyrimidin-2-yl)amino)-3-methoxyphenyl)piperidin-4-yl)(methyl)amino)methyl)pyridin-2-yl)piperidine-2,6-dione], the IC50 was 100 to 500 nM in assay [1], 500 to 1000 nM in assay [2] and 10 to 50 nM in assay [4]. Moreover, in assay [3], the “Degradation … (substrate protein remaining %)” value is recorded as “A (A is defined as 0% ≤ substrate protein remaining % ≤ 80%)”.
